# Assays:
# in vivo [1] = details: Sprague-Dawley, rat, iv, 0.5 mg/kg
# in vitro [2] = details: rat, liver microsomes
# in vivo [3] = details: Sprague-Dawley, rat, iv, 0.5 mg/kg; remark: listed apart in the source
# in vitro [4] = details: human, liver microsomes
# in vivo [5] = details: Sprague-Dawley, rat, po, 2 mg/kg
# physchem [6] = details: simulated intestinal fluid, pH 6.6
# physchem [7] = details: simulated gastric fluid, pH 1.7
# [8] = rat, in vivo, iv, 0.5 mg/kg
# physchem [9] = details: simulated gastric fluid, pH 1.7; remark: listed apart in the source
# in vitro [10] = details: pig, LLC-PK1
# physchem [11] = details: simulated intestinal fluid, pH 6.6; remark: listed apart in the source
# in vivo [12] = details: athymic nude, mouse, plasma, po, 30 mg/kg
# [13] = dog, in vivo, iv, 0.5 mg/kg
# in vivo [14] = details: Beagle, dog, po, 2 mg/kg
# [15] = rat, in vivo, iv, 0.5 mg/kg; remark: listed apart in the source
# [16] = Unbound clearance in CD-1 mouse at 1 mg/kg, iv; format: ADME, organism-based; details: in vivo
# [17] = mouse, in vivo, po, 30 mg/kg, 6 h
# in vivo [18] = details: Beagle, dog, iv, 0.5 mg/kg
# [19] = Oral bioavailability in CD-1 mouse at 3 mg/kg; format: ADME, organism-based; details: in vivo
# [20] = mouse, in vivo, po, 60 mg/kg, 6 h
# [21] = Clearance in CD-1 mouse at 1 mg/kg, iv; format: ADME, organism-based; details: in vivo
# in vivo [22] = details: athymic nude, mouse, plasma, po, 60 mg/kg
Compound,clearance (in vivo [1]) [mL/min/kg],microsomal CLint (in vitro [2]) [µL/min/mg],half-life (in vivo [3]) [h],microsomal CLint (in vitro [4]) [µL/min/mg],bioavailability (in vivo [5]) [%],also measured
CN1CC/C=C/[C@H](OCCN2CC(F)C2)[C@@H]2CC[C@H]2CN2C[C@@]3(CCCc4cc(Cl)ccc43)COc3ccc(cc32)[C@@](O)(C(=O)NS(=O)(=O)N(C)C)CC1=O,11.7,< 14,4.5,< 14,–,–
COC(=O)[C@@]1(O)CC(=O)N(C)CC/C=C/[C@H](OC)[C@@H]2CC[C@H]2CN2C[C@@]3(CCCc4cc(Cl)ccc43)COc3ccc1cc32,43.3,–,2.5,–,2,–
CN1CC/C=C/[C@H](OCCN2CCC(F)(F)CC2)[C@@H]2CC[C@H]2CN2C[C@@]3(CCCc4cc(Cl)ccc43)COc3ccc(cc32)[C@@](O)(C(=O)NS(=O)(=O)N(C)C)CC1=O,–,< 14,–,43,–,–
CN(C)C(=O)CO[C@H]1/C=C/CCN(C)C(=O)C[C@](O)(C(=O)NS(=O)(=O)N(C)C)c2ccc3c(c2)N(C[C@@H]2CC[C@H]21)C[C@@]1(CCCc2cc(Cl)ccc21)CO3,21.7,< 14,3.1,19,–,–
COC1CN(CCO[C@H]2/C=C/CCN(C)C(=O)C[C@](O)(C(=O)NS(=O)(=O)N(C)C)c3ccc4c(c3)N(C[C@@H]3CC[C@H]32)C[C@@]2(CCCc3cc(Cl)ccc32)CO4)C1,58.3,–,6.3,–,6,–
CN1CC/C=C/[C@H](OCCOCC(F)F)[C@@H]2CC[C@H]2CN2C[C@@]3(CCCc4cc(Cl)ccc43)COc3ccc(cc32)[C@@](O)(C(=O)NS(=O)(=O)N(C)C)CC1=O,0.833,–,6.5,–,41,–
CN1CC/C=C/[C@H](OCCN2CCOCC2)[C@@H]2CC[C@H]2CN2C[C@@]3(CCCc4cc(Cl)ccc43)COc3ccc(cc32)[C@@](O)(C(=O)NS(=O)(=O)N(C)C)CC1=O,15,< 14,2.8,21,9,–
CO[C@H]1/C=C/CCN(C)C(=O)C[C@](O)(C(=O)O)c2ccc3c(c2)N(C[C@@H]2CC[C@H]21)C[C@@]1(CCCc2cc(Cl)ccc21)CO3,23.3 to 23.8,–,6.8,–,0,"remaining at 1 h, 1 µM (physchem [6]): 100%; remaining at 1 h, 1 µM (physchem [7]): 26%; CL [8]: 31%; remaining at 0.5 h, 1 µM (physchem [9]): 49%; Papp (in vitro [10]): 4.5 ×10⁻⁶ cm/s; remaining at 0.5 h, 1 µM (physchem [11]): 100%"
CN1CC/C=C/[C@H](OCCN2CCS(=O)(=O)CC2)[C@@H]2CC[C@H]2CN2C[C@@]3(CCCc4cc(Cl)ccc43)COc3ccc(cc32)[C@@](O)(C(=O)NS(=O)(=O)N(C)C)CC1=O,60,< 14,2.2,< 14,6,–
CN1CC/C=C/[C@H](OCCCN2CC(F)(F)C2)[C@@H]2CC[C@H]2CN2C[C@@]3(CCCc4cc(Cl)ccc43)COc3ccc(cc32)[C@@](O)(C(=O)NS(=O)(=O)N(C)C)CC1=O,3.33,–,5.5,–,52,–
CO[C@H]1/C=C/CCN(C)C(=O)C[C@](O)(C(=O)NS(C)(=O)=O)c2ccc3c(c2)N(C[C@@H]2CC[C@H]21)C[C@@]1(CCCc2cc(Cl)ccc21)CO3,26.7,–,2.6,–,8,–
CO[C@H]1/C=C/C[C@H](C)[C@@H](C)S(=O)(=O)NC(=O)c2ccc3c(c2)N(C[C@@H]2CC[C@H]21)C[C@@]1(CCCc2cc(Cl)ccc21)CO3 [TAPOTOCLAX],1,–,18.2,–,34,"concentration at 6 h (in vivo [12]): 49.3 µM; CL free [13]: 22.3 mL/min/kg; bioavailability (in vivo [14]): 27%; remaining at 1 h, 1 µM (physchem [6]): 81%; CL free [15]: 138 mL/min/kg; CL free [16]: 67 mL/min/kg; remaining at 1 h, 1 µM (physchem [7]): 84%; Cp(f) [17]: 0.368 µM; clearance (in vivo [18]): 0.333 mL/min/kg; remaining at 0.5 h, 1 µM (physchem [9]): 90%; bioavailability [19]: 31%; Cp(f) [20]: 0.529 µM; clearance [21]: 0.5 mL/min/kg; concentration at 6 h (in vivo [22]): 70.9 µM; remaining at 0.5 h, 1 µM (physchem [11]): 90%"

# From ChEMBL document CHEMBL4354823, “Discovery and in Vivo Evaluation of Macrocyclic Mcl-1 Inhibitors Featuring an α-Hydroxy Phenylacetic Acid Pharmacophore or Bioisostere” (J Med Chem, 2019)
